Legend:
PDHK2 = PDHK2 (Homo sapiens (Human), UniProt Q15119); assay: Biochemical activity testing of PDHK2: PDC inactivation assay; settings: human rec PDHK2, 5 μM ATP, read-out: IC50 PDHK2 (enzyme assay)
Source text: Biochemical Activity Testing of PDHK2: PDC Inactivation Assay
The biochemical activity assay for PDHK2 is based on the inactivation of PDC through phosphorylation by PDHK2. The assay is run in two steps: the enzymatic PDHK2 reaction in which isolated PDC is phosphorylated by PDHK2 with ATP as co-substrate and the PDC activity assay in which pyruvate and NAD are converted to acetyl-CoA and NADH. The PDC activity correlates to the increase in NADH and thereby is detectable directly via the increasing fluorescence signal (Exc 340 nm, Em 450 nm). Inhibition of PDHK2 results in a lower phosphorylation status and thereby a less decrease in activity of PDC and a stronger increase in NADH fluorescence signal.
The PDC inactivation assay is performed in Greiner 384-well microtiter plates and is used for high throughput screen. 4 μl of PDHK2 (human, rec, Carna Bioscience, 10 ng/μl-137 nM final concentration) and PDC (isolated from porcine heart, Sigma-Aldrich, 20 mU/ml final concentration) are incubated in the absence or presence of the test compound (10 dilution concentrations) for 30 min at room temperature in kinase buffer (15 mM potassium phosphate buffer, pH 7.0, 60 mM KCl, 1.5 mM DTT, 2.5 mM MgCl2, 0.0125% (w/v) BSA, 0.125% Pluronic F-68). The kinase reaction is started by the addition of 4 μl ATP substrate solution (fc 5 μM in kinase buffer). After 30 min incubation at 37° C. 40 μl of PDC reaction solution (100 mM Tris/HCl, pH 7.8, 0.5 mM EDTA, 1 mM MgCl2, 50 mM NaF, 0.25 mM Coenzyme A, 5 mM pyruvate, 1 mM NAD, 5 mM DTT, 1 mM thiamine pyrophosphate) is added. The first fluorescence measurement is performed on a Perkin Elmer Envision (Exc 340 nm, Em 450 nm). The reaction is incubated for 45 min at room temperature. Afterwards a second fluorescence measurement is performed and the PDC activity is calculated by the difference between both measurements. As full value for the PDHK2 assay the inhibitor-free PDHK2 reaction is used. The pharmacological zero value used is DCA (Sigma-Aldrich) in a final concentration of 3 mM. The inhibitory values (IC50) were determined using either the program Symyx Assay Explorer® or Condosseo® from GeneData.

human PDHK2 (12-407) = human PDHK2 (12-407) (Homo sapiens (Human), UniProt Q15119); assay: Isothermal titration calorimetry (ITC); settings: 30° C., pH 7.5; read-out: Binding (ITC) KD
Method: Isothermal Titration Calorimetry
ITC measurements were performed with a VP-ITC micro calorimeter (Microcal, LLC/GE Healthcare Bio-Sciences AB, Uppsala, Sweden). In general titrations were performed by titrating the protein (50 μM) to the test compound (5 μM) in 12 μl injections. All binding experiments were carried out at 30° C. In general the test compounds were diluted form DMSO stock solutions into the measurement buffer with a maximum final concentration of 1% DMSO. The measurement buffer was 20 mM HEPES, 135 mM KCl, 1 mM TCEP, 2 mM MgCl2, 15 mM NaH2PO4, pH 7.5. The human PDHK2 (12-407) was produced in E. coli as his-tagged protein and purified by affinity chromatography. The tag was removed by side specific proteolysis. Before titration the protein buffer was changed to the measurement buffer containing the same DMSO concentration as the test compound dilution. ITC data analysis was performed using Origin 7 calorimetry software from the same supplier. For most measurements a binding model of one binding site was assumed. According to the applied mathematical model it is possible to calculate the binding constant (KA), the observed binding enthalpy (ΔH^obs) as well as the stoichiometry (N) of the formed complex. Preceding analysis the raw data was corrected for the heats of dilution by extrapolating from the saturation value from the end of titration. In order to allow for direct comparison between the respective experimental series and protein preparations the protein concentration was corrected by referencing titrations to a well behaved standard inhibitor. The apparent stoichiometry values defined the fraction of binding competent protein and compensated for relative errors in protein concentration measurements. This corrected protein concentration was used to set up ITC experiment series with test compounds. Any deviations from ideal 1:1 stoichiometry observed here were attributed to errors in compound concentration. This nominal compound concentration was corrected as well to achieve 1:1 stoichiometry in the fit.

[1] = test system: PDH-E1alpha (pSer300) in HEK293T cells; assay: Cellular immunofluorescence assay (Anti-PDH-E1alpha (pSer300)) in HEK293T cells; assay type: cell-based; settings: Homo sapiens, HEK-293T, 5 hours incubation, read-out: IC50 (cell data)
Method: Cellular Assay for Determination of Compound Activities
Compound activities were determined in a cellular immunofluorescence assay.
Human HEK293T cells were seeded into black 384-well plates with clear bottom and grown overnight.
Next day, test compounds were added to the wells and the plates incubated for 5 hours. Following this, cells were fixed with formaldehyde, permeabilised and blocked. The primary antibody, Anti-PDH-E1alpha (pSer300), AP1064 (Merck Millipore) was added and incubated overnight in the plate wells. Next, cells were washed and the secondary antibody, Alexa Fluor 488, goat anti-rabbit ab (A-11008, Invitrogen) was added together with Hoechst 33258 (H3569, Invitrogen) and incubated for 1 hour in the plate wells. Finally, cells were washed and the plates were measured on the laser scanning cytometer acumen hci (TTpLabtech).
The raw data were normalized against a pharmacological inhibitor control and dose response curves were generated by plotting the percent effect values using the software package Genedata screener (Genedata).

| SMILES | IC50 (PDHK2) [µM] | Kd (human PDHK2 (12-407)) [µM] | IC50 [1] [µM] |
| --- | --- | --- | --- |
| Cc1ccc(N(C)C(=O)C2CCN(C(=O)[C@@](C)(O)C(F)(F)F)CC2)cc1 [Compound A1, 1-((R)-3,3,3-Trifluoro-2-hydroxy-2-methyl-propionyl)-piperidine-4-carboxylic Acid Methyl-p-Tolyl-Amide] | 1.1 | 0.13 | 5.3 |
| CN(C(=O)C1CCN(C(=O)[C@@](C)(O)C(F)(F)F)CC1)c1ccc(C(F)(F)F)cc1Cl [Compound A3, 1-((R)-3,3,3-Trifluoro-2-hydroxy-2-methyl-propionyl)-piperidine-4-carboxylic acid (2-chloro-4-trifluoromethyl-phenyl)-methyl-amide] | 0.41 | 0.038 | 2.1 |
| CN(C(=O)C1CCN(C(=O)[C@@](C)(O)C(F)(F)F)CC1)c1ccc(Cl)cc1 [Compound A5, 1-((R)-3,3,3-Trifluoro-2-hydroxy-2-methyl-propionyl)-piperidine-4-carboxylic acid (4-chloro-phenyl)-methyl-amide] | 0.59 | 0.19 | 2.8 |
| CC1CN(C(=O)[C@@](C)(O)C(F)(F)F)CCC1C(=O)N(C)c1ccc(Cl)cc1 (stereo partly drawn) [Compound A9, N-(4-chlorophenyl)-N,3-dimethyl-1-[(2R)-3,3,3-trifluoro-2-hydroxy-2-methylpropanoyl]piperidine-4-carboxamide] | 0.27 | 0.1 | 0.23 |
| CN(C(=O)c1ccc(Cl)cc1)C1CCN(C(=O)[C@@](C)(O)C(F)(F)F)CC1 [Compound A16, 4-Chloro-N-methyl-N-{1-[(2R)-3,3,3-trifluoro-2-hydroxy-2-methylpropanoyl]piperidin-4-yl}benzamide] | 0.39 | 0.154 | 1.5 |
| Cc1ccc(C(=O)N(C)C2CCN(C(=O)[C@@](C)(O)C(F)(F)F)CC2)c(F)c1 [Compound A18, 2-Fluoro-4,N-dimethyl-N-{1-[(R)-3,3,3-trifluoro-2-hydroxy-2-methyl-propionyl]-piperidin-4-yl}-benzamide] | 0.26 | 0.069 | 0.7 |
| CN(C(=O)c1ccc(C(F)(F)F)cc1Cl)C1CCN(C(=O)[C@@](C)(O)C(F)(F)F)CC1 [Compound A19, 2-Chloro-N-methyl-N-{1-[(2R)-3,3,3-trifluoro-2-hydroxy-2-methylpropanoyl]piperidin-4-yl}-4-(trifluoromethyl)benzamide] | 0.55 | 0.053 | 0.52 |
| C[C@@H]1CN(C(=O)[C@@](C)(O)C(F)(F)F)CC[C@@H]1N(C)C(=O)c1ccc(Cl)cc1 [Compound A21, 4-Chloro-N-methyl-N-[(3R,4S)-3-methyl-1-[(2R)-3,3,3-trifluoro-2-hydroxy-2-methylpropanoyl]piperidin-4-yl]benzamide] | 0.26 | 0.057 | 0.16 |
| Cc1ccc(C(=O)N(C)[C@H]2CCN(C(=O)[C@@](C)(O)C(F)(F)F)C[C@H]2C)c(F)c1 [Compound A27, 2-Fluoro-N,4-dimethyl-N-[(3R,4S)-3-methyl-1-[(2R)-3,3,3-trifluoro-2-hydroxy-2-methylpropanoyl]piperidin-4-yl]benzamide] | 0.3 | 0.013 | 0.0093 |
| C[C@@H]1CN(C(=O)[C@@](C)(O)C(F)(F)F)CC[C@@H]1N(C)C(=O)c1ccccc1 [Compound A32, N-Methyl-N-[(3R,4S)-3-methyl-1-[(2R)-3,3,3-trifluoro-2-hydroxy-2-methylpropanoyl]piperidin-4-yl]benzamide] | 0.71 | 0.046 | 0.14 |

Now those with a lower IC50 (PDHK2), led by results:

| IC50 (PDHK2) [µM] | Kd (human PDHK2 (12-407)) [µM] | SMILES | IC50 [1] [µM] |
| --- | --- | --- | --- |
| 0.25 | 0.11 | Cc1ccc(C(=O)N(C)C2CCN(C(=O)[C@@](C)(O)C(F)(F)F)CC2)cc1 [Compound A17, N,4-Dimethyl-N-{1-[(2R)-3,3,3-trifluoro-2-hydroxy-2-methylpropanoyl]piperidin-4-yl}benzamide] | 1 |
| 0.25 | 0.038 | C[C@@H]1CN(C(=O)[C@@](C)(O)C(F)(F)F)CC[C@@H]1N(C)C(=O)c1ccc(F)cc1 [Compound A29, 4-Fluoro-N-methyl-N-[(3R,4S)-3-methyl-1-[(2R)-3,3,3-trifluoro-2-hydroxy-2-methylpropanoyl]piperidin-4-yl]benzamide] | 0.29 |
| 0.2 | 0.09 | Cc1ccc(N(C)C(=O)C2CCN(C(=O)[C@@](C)(O)C(F)(F)F)CC2)c(F)c1 [Compound A2, 1-((R)-3,3,3-Trifluoro-2-hydroxy-2-methyl-propionyl)-piperidine-4-carboxylic acid (2-fluoro-4-methyl-phenyl)-methyl-amide] | 2.6 |
| 0.2 |  | Cc1ccc(N(C)C(=O)C2CCN(C(=O)[C@@](C)(O)C(F)(F)F)CC2C)c(F)c1 (stereo partly drawn) [Compound A12, N-(2-fluoro-4-methylphenyl)-N,3-dimethyl-1-[(2R)-3,3,3-trifluoro-2-hydroxy-2-methylpropanoyl]piperidine-4-carboxamide] | 0.19 |
| 0.16 | 0.031 | Cc1ccc(N(C)C(=O)[C@H]2CCN(C(=O)[C@@](C)(O)C(F)(F)F)C[C@H]2C)cc1 [Compound A7, (3S,4S)—N,3-Dimethyl-N-(4-methylphenyl)-1-[(2R)-3,3,3-trifluoro-2-hydroxy-2-methylpropanoyl]piperidine-4-carboxamide] | 0.019 |
| 0.13 | 0.016 | Cc1ccc(C(=O)N(C)[C@H]2CCN(C(=O)[C@@](C)(O)C(F)(F)F)C[C@H]2C)cc1 [Compound A24, N,4-Dimethyl-N-[(3R,4S)-3-methyl-1-[(2R)-3,3,3-trifluoro-2-hydroxy-2-methylpropanoyl]piperidin-4-yl]benzamide] | 0.29 |
| 0.12 | 0.014 | Cc1ccc(N(C)C(=O)[C@H]2CCN(C(=O)[C@@](C)(O)C(F)(F)F)C[C@H]2C)c(F)c1 [Compound A13, (3S,4S)—N-(2-fluoro-4-methylphenyl)-N,3-dimethyl-1-[(2R)-3,3,3-trifluoro-2-hydroxy-2-methylpropanoyl]piperidine-4-carboxamide] | 0.07 |
| 0.11 | 0.026 | C[C@@H]1CN(C(=O)[C@@](C)(O)C(F)(F)F)CC[C@@H]1C(=O)N(C)c1ccc(Cl)cc1 [Compound A10, (3S,4S)—N-(4-chlorophenyl)-N,3-dimethyl-1-[(2R)-3,3,3-trifluoro-2-hydroxy-2-methylpropanoyl]piperidine-4-carboxamide] | 0.17 |

From US10428024B2, “Piperidinyl derivatives” (MERCK PATENT GMBH, priority 2016, dated 2019)
